Measurements reported in ChEMBL document CHEMBL4396937, “Synthesis of new triazole fused imidazo[2,1-b]thiazole hybrids with emphasis on Staphylococcus aureus virulence factors” (Bioorg Med Chem Lett, 2019).
≈ marks a conversion by molar mass, not a printed value. Calls of active or inactive are those of the source. No cut-off for these calls is given here.

Columns and labels:
[1] = tested on: Micrococcus luteus; experiment: Antibiofilm activity against Micrococcus luteus MTCC 2470 assessed as inhibition of biofilm formation by crystal violet staining-based microtitre plate assay; assay type: functional, organism-based
[2] = tested on: Pseudomonas aeruginosa; experiment: Antibiofilm activity against Pseudomonas aeruginosa MTCC 2453 assessed as inhibition of biofilm formation by crystal violet staining-based microtitre plate assay; assay type: functional, organism-based
[3] = tested on: Raoultella planticola; experiment: Bactericidal activity against Klebsiella planticola MTCC 530 assessed as reduction in bacterial survival incubated for 24 hrs followed by transfer of microbial suspension to agar plates and measured at 24 hrs post transfer by agar well diffusion method; assay type: functional; conditions: MTCC 530, 24 h
[4] = tested on: Raoultella planticola; experiment: Antibacterial activity against Klebsiella planticola MTCC 530 assessed as reduction in bacterial growth incubated for 24 hrs by agar well diffusion method; assay type: functional; conditions: MTCC 530, 24 h
[5] = tested on: Bacillus subtilis; experiment: Antibiofilm activity against Bacillus subtilis MTCC 121 assessed as inhibition of biofilm formation by crystal violet staining-based microtitre plate assay; assay type: functional, organism-based
[6] = tested on: Bacillus subtilis; experiment: Antibacterial activity against Bacillus subtilis MTCC 121 assessed as reduction in bacterial growth incubated for 24 hrs by agar well diffusion method; assay type: functional; conditions: MTCC 121, 24 h
[7] = tested on: Candida albicans; experiment: Fungicidal activity against Candida albicans MTCC 3017 assessed as reduction in fungal survival incubated for 24 hrs followed by transfer of microbial suspension to agar plates and measured at 24 hrs post transfer by agar well diffusion method; assay type: functional
[8] = tested on: Escherichia coli; experiment: Antibacterial activity against Escherichia coli MTCC 739 assessed as reduction in bacterial growth incubated for 24 hrs by agar well diffusion method; assay type: functional; conditions: MTCC 739, 24 h
[9] = tested on: Staphylococcus aureus; experiment: Antibacterial activity against Staphylococcus aureus MLS-16 MTCC 2940 assessed as reduction in bacterial growth incubated for 24 hrs by agar well diffusion method; assay type: functional; conditions: MLS-16 MTCC 2940, 24 h
[10] = tested on: Micrococcus luteus; experiment: Bactericidal activity against Micrococcus luteus MTCC 2470 assessed as reduction in bacterial survival incubated for 24 hrs followed by transfer of microbial suspension to agar plates and measured at 24 hrs post transfer by agar well diffusion method; assay type: functional; conditions: MTCC 2470, 24 h
[11] = tested on: MRC5; experiment: Cytotoxicity against human MRC5 cells assessed as reduction in cell viability incubated for 48 hrs by MTT assay; assay type: cell-based; conditions: MRC5, 48 h
[12] = tested on: Staphylococcus aureus; experiment: Antibiofilm activity against Staphylococcus aureus MLS-16 MTCC 2940 assessed as inhibition of biofilm formation by crystal violet staining-based microtitre plate assay; assay type: functional, organism-based
[13] = tested on: Staphylococcus aureus; experiment: Antibacterial activity against Staphylococcus aureus MTCC 96 assessed as reduction in bacterial growth incubated for 24 hrs by agar well diffusion method; assay type: functional; conditions: MTCC 96, 24 h
[14] = tested on: Micrococcus luteus; experiment: Antibacterial activity against Micrococcus luteus MTCC 2470 assessed as reduction in bacterial growth incubated for 24 hrs by agar well diffusion method; assay type: functional; conditions: MTCC 2470, 24 h
[15] = tested on: Escherichia coli; experiment: Antibiofilm activity against Escherichia coli MTCC 739 assessed as inhibition of biofilm formation by crystal violet staining-based microtitre plate assay; assay type: functional, organism-based
[16] = tested on: Candida albicans; experiment: Antifungal activity against Candida albicans MTCC 3017 assessed as reduction in fungal growth incubated for 24 hrs by agar well diffusion method; assay type: functional
[17] = tested on: Staphylococcus aureus; experiment: Bactericidal activity against Staphylococcus aureus MTCC 96 assessed as reduction in bacterial survival incubated for 24 hrs followed by transfer of microbial suspension to agar plates and measured at 24 hrs post transfer by agar well diffusion method; assay type: functional; conditions: MTCC 96, 24 h
[18] = tested on: Staphylococcus aureus; experiment: Bactericidal activity against Staphylococcus aureus MLS-16 MTCC 2940 assessed as reduction in bacterial survival incubated for 24 hrs followed by transfer of microbial suspension to agar plates and measured at 24 hrs post transfer by agar well diffusion method; assay type: functional; conditions: MLS-16 MTCC 2940, 24 h
[19] = tested on: Escherichia coli; experiment: Bactericidal activity against Escherichia coli MTCC 739 assessed as reduction in bacterial survival incubated for 24 hrs followed by transfer of microbial suspension to agar plates and measured at 24 hrs post transfer by agar well diffusion method; assay type: functional; conditions: MTCC 739, 24 h
[20] = tested on: Pseudomonas aeruginosa; experiment: Bactericidal activity against Pseudomonas aeruginosa MTCC 2453 assessed as reduction in bacterial survival incubated for 24 hrs followed by transfer of microbial suspension to agar plates and measured at 24 hrs post transfer by agar well diffusion method; assay type: functional; conditions: MTCC 2453, 24 h
[21] = tested on: Bacillus subtilis; experiment: Bactericidal activity against Bacillus subtilis MTCC 121 assessed as reduction in bacterial survival incubated for 24 hrs followed by transfer of microbial suspension to agar plates and measured at 24 hrs post transfer by agar well diffusion method; assay type: functional; conditions: MTCC 121, 24 h
[22] = tested on: Staphylococcus aureus; experiment: Antibiofilm activity against Staphylococcus aureus MTCC 96 assessed as inhibition of biofilm formation by crystal violet staining-based microtitre plate assay; assay type: functional, organism-based
[23] = tested on: Raoultella planticola; experiment: Antibiofilm activity against Klebsiella planticola MTCC 530 assessed as inhibition of biofilm formation by crystal violet staining-based microtitre plate assay; assay type: functional, organism-based
[24] = tested on: Pseudomonas aeruginosa; experiment: Antibacterial activity against Pseudomonas aeruginosa MTCC 2453 assessed as reduction in bacterial growth incubated for 24 hrs by agar well diffusion method; assay type: functional; conditions: MTCC 2453, 24 h
[25] = tested on: Staphylococcus aureus; experiment: Antibiofilm activity against Staphylococcus aureus MTCC 96 assessed as disruption of biofilm matrix with individual cell lysis at bactericidal MBC incubated for 48 hrs in presence of Escherichia coli MTCC 739 by FE-SEM analysis; assay type: functional, organism-based
[26] = tested on: Escherichia coli; experiment: Antibiofilm activity against Escherichia coli MTCC 739 assessed as inhibition of biofilm formation incubated for 48 hrs in presence of Staphylococcus aureus MTCC 96 by FE-SEM analysis; assay type: functional, organism-based; conditions: MTCC 739, 48 h
[27] = tested on: Staphylococcus aureus; experiment: Antibiofilm activity against Staphylococcus aureus MTCC 96 assessed as disruption and cell damage at bactericidal MBC incubated for 48 hrs by FE-SEM analysis; assay type: functional, organism-based
[28] = tested on: Escherichia coli; experiment: Antibiofilm activity against Escherichia coli MTCC 739 assessed as cell lysis with damaged membrane at bactericidal MBC incubated for 48 hrs by FE-SEM analysis; assay type: functional, organism-based
[29] = tested on: Escherichia coli; experiment: Antibiofilm activity against Escherichia coli MTCC 739 assessed as disruption of biofilm matrix with individual cell lysis at bactericidal MBC incubated for 48 hrs in presence of Staphylococcus aureus MTCC 96 by FE-SEM analysis; assay type: functional, organism-based
[30] = tested on: Staphylococcus aureus; experiment: Antibiofilm activity against Staphylococcus aureus MTCC 96 assessed as inhibition of biofilm formation incubated for 48 hrs in presence of Escherichia coli MTCC 739 by FE-SEM analysis; assay type: functional, organism-based; conditions: MTCC 96, 48 h

Compound	IC50 [1] [µg/mL]	IC50 [2] [µg/mL]	MBC [3] [µg/mL]	MIC [4] [µg/mL]	IC50 [5] [µg/mL]	MIC [6] [µg/mL]	MIC [8] [µg/mL]	MIC [9] [µg/mL]	MBC [10] [µg/mL]	IC50 [11] [µg/mL]	IC50 [12] [µg/mL]	MIC [13] [µg/mL]	MIC [14] [µg/mL]	MBC [17] [µg/mL]	MBC [18] [µg/mL]	MBC [19] [µg/mL]	MBC [20] [µg/mL]	MBC [21] [µg/mL]	IC50 [22] [µg/mL]	IC50 [23] [µg/mL]	other results
O=C(c1cn(-c2ccc(Br)cc2)nn1)c1c(-c2ccccc2)nc2sccn12	13.9 (≈ 30.9 µM)	20.2 (≈ 44.9 µM)	7.8 (≈ 17.3 µM)	3.9 (≈ 8.66 µM)	16 (≈ 35.5 µM)	3.9 (≈ 8.66 µM)	3.9 (≈ 8.66 µM)	3.9 (≈ 8.66 µM)	15.6 (≈ 34.6 µM)	28.1 (≈ 62.4 µM)	14.4 (≈ 32 µM)	3.9 (≈ 8.66 µM)	7.8 (≈ 17.3 µM)	7.8 (≈ 17.3 µM)	7.8 (≈ 17.3 µM)	7.8 (≈ 17.3 µM)	7.8 (≈ 17.3 µM)	7.8 (≈ 17.3 µM)	21.8 (≈ 48.4 µM)	21.1 (≈ 46.9 µM)	MFC ([7]; MTCC 3017, 24 h): 15.6 µg/mL (≈ 34.6 µM); IC50 [15]: 20.2 µg/mL (≈ 44.9 µM); MIC ([16]; MTCC 3017, 24 h): 7.8 µg/mL (≈ 17.3 µM); MIC [24]: 3.9 µg/mL (≈ 8.66 µM)
O=C(c1cn(-c2ccc(Cl)cc2)nn1)c1c(-c2ccc(Cl)cc2)nc2sccn12	13.7 (≈ 31.1 µM)	19.3 (≈ 43.8 µM)	7.8 (≈ 17.7 µM)	3.9 (≈ 8.86 µM)	13.2 (≈ 30 µM)	3.9 (≈ 8.86 µM)	3.9 (≈ 8.86 µM)	7.8 (≈ 17.7 µM)	7.8 (≈ 17.7 µM)	24.2 (≈ 55 µM)	11.9 (≈ 27 µM)	3.9 (≈ 8.86 µM)	3.9 (≈ 8.86 µM)	7.8 (≈ 17.7 µM)	15.6 (≈ 35.4 µM)	7.8 (≈ 17.7 µM)	7.8 (≈ 17.7 µM)	7.8 (≈ 17.7 µM)	18.4 (≈ 41.8 µM)	16.8 (≈ 38.2 µM)	MFC ([7]; MTCC 3017, 24 h): 15.6 µg/mL (≈ 35.4 µM); IC50 [15]: 14 µg/mL (≈ 31.8 µM); MIC ([16]; MTCC 3017, 24 h): 7.8 µg/mL (≈ 17.7 µM); MIC [24]: 3.9 µg/mL (≈ 8.86 µM)
O=C(c1cn(-c2ccc(Cl)cc2)nn1)c1c(-c2ccccc2)nc2sccn12	11.2 (≈ 27.7 µM)	14.2 (≈ 35 µM)	7.8 (≈ 19.2 µM)	3.9 (≈ 9.61 µM)	11.4 (≈ 28.1 µM)	3.9 (≈ 9.61 µM)	1.9 (≈ 4.68 µM)	1.9 (≈ 4.68 µM)	7.8 (≈ 19.2 µM)	36.1 (≈ 88.9 µM)	10.6 (≈ 26.2 µM)	1.9 (≈ 4.68 µM)	3.9 (≈ 9.61 µM)	3.9 (≈ 9.61 µM)	3.9 (≈ 9.61 µM)	3.9 (≈ 9.61 µM)	7.8 (≈ 19.2 µM)	7.8 (≈ 19.2 µM)	9.8 (≈ 24.1 µM)	14.6 (≈ 36 µM)	Activity [25]: Active; IC50 [26]: 14.3 µg/mL; MFC ([7]; MTCC 3017, 24 h): 15.6 µg/mL (≈ 38.4 µM); Activity [27]: Active; IC50 [15]: 10.3 µg/mL (≈ 25.4 µM); MIC ([16]; MTCC 3017, 24 h): 7.8 µg/mL (≈ 19.2 µM); Activity [28]: Active; Activity [29]: Active; IC50 [30]: 14.3 µg/mL; MIC [24]: 3.9 µg/mL (≈ 9.61 µM)
O=C(O)c1cn(C2CC2)c2cc(N3CCNCC3)c(F)cc2c1=O [CIPROFLOXACIN]	6.8 (≈ 20.5 µM)	7.4 (≈ 22.3 µM)	1.9 (≈ 5.73 µM)	0.9 (≈ 2.72 µM)	6.6 (≈ 19.9 µM)	0.9 (≈ 2.72 µM)	0.9 (≈ 2.72 µM)	0.9 (≈ 2.72 µM)	1.9 (≈ 5.73 µM)	53.4 (≈ 161 µM)	6.6 (≈ 19.9 µM)	0.9 (≈ 2.72 µM)	0.9 (≈ 2.72 µM)	1.9 (≈ 5.73 µM)	1.9 (≈ 5.73 µM)	1.9 (≈ 5.73 µM)	1.9 (≈ 5.73 µM)	1.9 (≈ 5.73 µM)	6.7 (≈ 20.2 µM)	8.6 (≈ 26 µM)	MFC [7]: inactive; MIC [16]: inactive; IC50 [30]: 11.6 µg/mL; MIC [24]: 0.9 µg/mL (≈ 2.72 µM)
O=C(c1cn(-c2ccc(Br)cc2)nn1)c1c(-c2ccc(Cl)cc2)nc2sccn12	16 (≈ 33 µM)	17.5 (≈ 36.1 µM)	15.6 (≈ 32.2 µM)	3.9 (≈ 8.05 µM)	13.5 (≈ 27.8 µM)	3.9 (≈ 8.05 µM)	3.9 (≈ 8.05 µM)	7.8 (≈ 16.1 µM)	7.8 (≈ 16.1 µM)	37.3 (≈ 76.9 µM)	14 (≈ 28.9 µM)	3.9 (≈ 8.05 µM)	3.9 (≈ 8.05 µM)	7.8 (≈ 16.1 µM)	15.6 (≈ 32.2 µM)	7.8 (≈ 16.1 µM)	7.8 (≈ 16.1 µM)	7.8 (≈ 16.1 µM)	21.3 (≈ 43.9 µM)	20.5 (≈ 42.3 µM)	MFC ([7]; MTCC 3017, 24 h): 15.6 µg/mL (≈ 32.2 µM); IC50 [15]: 16.2 µg/mL (≈ 33.4 µM); MIC ([16]; MTCC 3017, 24 h): 7.8 µg/mL (≈ 16.1 µM); MIC [24]: 3.9 µg/mL (≈ 8.05 µM)
O=C(c1cn(-c2ccc(F)cc2Br)nn1)c1c(-c2ccccc2)nc2sccn12	12.3 (≈ 26.3 µM)	18.2 (≈ 38.9 µM)	7.8 (≈ 16.7 µM)	3.9 (≈ 8.33 µM)	13.5 (≈ 28.8 µM)	3.9 (≈ 8.33 µM)	1.9 (≈ 4.06 µM)	1.9 (≈ 4.06 µM)	7.8 (≈ 16.7 µM)	48.2 (≈ 103 µM)	12.8 (≈ 27.3 µM)	1.9 (≈ 4.06 µM)	3.9 (≈ 8.33 µM)	3.9 (≈ 8.33 µM)	3.9 (≈ 8.33 µM)	3.9 (≈ 8.33 µM)	7.8 (≈ 16.7 µM)	7.8 (≈ 16.7 µM)	13.5 (≈ 28.8 µM)	17.3 (≈ 36.9 µM)	MFC ([7]; MTCC 3017, 24 h): 15.6 µg/mL (≈ 33.3 µM); IC50 [15]: 18.2 µg/mL (≈ 38.9 µM); MIC ([16]; MTCC 3017, 24 h): 7.8 µg/mL (≈ 16.7 µM); MIC [24]: 3.9 µg/mL (≈ 8.33 µM)
